Reference: paper PMC4933591 (Bioconjugate chemistry, 2015)
Non-standard residues stand in square brackets, D forms with d. Residues, ends and D or L forms follow the SMILES beside them. Aha = [N-]=[N+]=NCC[C@H](N)C(=O)O

Key:
[1] = Aggregation observed during experiments; format: physicochemical; settings: lower concentrations during experiments
[2] = system: trypsin
[3] = target: T1, GLP-1R (Mus musculus, UniProt O35659); assay: In vitro receptor binding assay using NIT-1 cells
T1 sequence (O35659 22-463): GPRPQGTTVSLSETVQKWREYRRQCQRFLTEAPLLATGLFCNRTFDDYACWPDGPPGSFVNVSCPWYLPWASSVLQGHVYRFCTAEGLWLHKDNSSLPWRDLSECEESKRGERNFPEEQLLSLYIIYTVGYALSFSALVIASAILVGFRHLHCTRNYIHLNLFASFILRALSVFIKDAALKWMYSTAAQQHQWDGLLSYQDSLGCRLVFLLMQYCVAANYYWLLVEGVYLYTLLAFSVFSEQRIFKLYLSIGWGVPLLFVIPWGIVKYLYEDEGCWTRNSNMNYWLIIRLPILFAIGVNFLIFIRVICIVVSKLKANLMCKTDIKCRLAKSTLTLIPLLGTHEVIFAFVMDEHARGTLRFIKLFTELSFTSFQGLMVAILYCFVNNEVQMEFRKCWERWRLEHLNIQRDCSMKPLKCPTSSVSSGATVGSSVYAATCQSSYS

half-life slower than wild-type GLP-1 [2]: 1 to 2 orders of magnitude
Kd [3]: 5.6 nM
Compound: CC[C@H](C)[C@H](NC(=O)[C@H](Cc1ccccc1)NC(=O)[C@H](CCN=[N+]=[N-])NC(=O)[C@H](CCCCN)NC(=O)[C@H](C)NC(=O)[C@H](C)NC(=O)[C@H](CCC(N)=O)NC(=O)CNC(=O)[C@H](CCC(=O)O)NC(=O)[C@H](CCN=[N+]=[N-])NC(=O)[C@H](Cc1ccc(O)cc1)NC(=O)[C@H](CO)NC(=O)[C@H](CO)NC(=O)[C@@H](NC(=O)[C@H](CC(=O)O)NC(=O)[C@H](CO)NC(=O)[C@@H](NC(=O)[C@H](Cc1ccccc1)NC(=O)[C@@H](NC(=O)CNC(=O)[C@H](CCC(=O)O)NC(=O)[C@H](C)NC(=O)[C@@H](N)Cc1c[nH]cn1)[C@@H](C)O)[C@@H](C)O)C(C)C)C(=O)N[C@@H](C)C(=O)N[C@@H](Cc1c[nH]c2ccccc12)C(=O)N[C@@H](CC(C)C)C(=O)N[C@H](C(=O)N[C@@H](CCCCN)C(=O)NCC(=O)N[C@@H](CCCNC(=N)N)C(N)=O)C(C)C [double mutant GLP-1] (H-HAEGTFTSDVSSY[Aha]EGQAAK[Aha]FIAWLVKGR-NH2)
aggregation [1]: no aggregation was detected at lower concentrations
